Numbers after ± are expanded uncertainties.
Experiment: molar heat capacity at constant pressure
Details: 101.33 kPa, Crystal, Small sample (50 mg) DSC

[Na+].[O]=[Re](=[O])(=[O])[O-] [sodium perrhenate]
Details	molar heat capacity at constant pressure [J/K/mol]
298.15 K	118.8 ± 2.4
323.15 K	122.2 ± 2.4
348.15 K	125.5 ± 2.5
373.15 K	128.9 ± 2.6
398.15 K	131.8 ± 2.6
423.15 K	135.1 ± 2.7
448.15 K	137.2 ± 2.7
473.15 K	139.7 ± 2.8
498.15 K	142.3 ± 2.8
523.15 K	144.8 ± 2.9
548.15 K	146.9 ± 2.9
573.15 K	148.1 ± 3
598.15 K	149.4 ± 3

Reference: the NIST ThermoML archive (doi:10.1016/j.jct.2009.04.004)
